Laboratory results: publication PMC5574184 (Journal of medicinal chemistry, 2016)
“Also recorded” adds a separate entry of the source. One block for each molecule: values may come before it.

Columns and labels:
60 NCI cell lines = assay: NCI-60 dose response assay; format: cell-based, human; conditions: for GI50 in the dose response assay (in words): most of the NCI-60 cell lines
HDAC6 = target: T1, HDAC6 (Homo sapiens, UniProt Q9UBN7); assay: ELISA-based HDAC activity assay; format: biochemical
T1 sequence (Q9UBN7 1-1215): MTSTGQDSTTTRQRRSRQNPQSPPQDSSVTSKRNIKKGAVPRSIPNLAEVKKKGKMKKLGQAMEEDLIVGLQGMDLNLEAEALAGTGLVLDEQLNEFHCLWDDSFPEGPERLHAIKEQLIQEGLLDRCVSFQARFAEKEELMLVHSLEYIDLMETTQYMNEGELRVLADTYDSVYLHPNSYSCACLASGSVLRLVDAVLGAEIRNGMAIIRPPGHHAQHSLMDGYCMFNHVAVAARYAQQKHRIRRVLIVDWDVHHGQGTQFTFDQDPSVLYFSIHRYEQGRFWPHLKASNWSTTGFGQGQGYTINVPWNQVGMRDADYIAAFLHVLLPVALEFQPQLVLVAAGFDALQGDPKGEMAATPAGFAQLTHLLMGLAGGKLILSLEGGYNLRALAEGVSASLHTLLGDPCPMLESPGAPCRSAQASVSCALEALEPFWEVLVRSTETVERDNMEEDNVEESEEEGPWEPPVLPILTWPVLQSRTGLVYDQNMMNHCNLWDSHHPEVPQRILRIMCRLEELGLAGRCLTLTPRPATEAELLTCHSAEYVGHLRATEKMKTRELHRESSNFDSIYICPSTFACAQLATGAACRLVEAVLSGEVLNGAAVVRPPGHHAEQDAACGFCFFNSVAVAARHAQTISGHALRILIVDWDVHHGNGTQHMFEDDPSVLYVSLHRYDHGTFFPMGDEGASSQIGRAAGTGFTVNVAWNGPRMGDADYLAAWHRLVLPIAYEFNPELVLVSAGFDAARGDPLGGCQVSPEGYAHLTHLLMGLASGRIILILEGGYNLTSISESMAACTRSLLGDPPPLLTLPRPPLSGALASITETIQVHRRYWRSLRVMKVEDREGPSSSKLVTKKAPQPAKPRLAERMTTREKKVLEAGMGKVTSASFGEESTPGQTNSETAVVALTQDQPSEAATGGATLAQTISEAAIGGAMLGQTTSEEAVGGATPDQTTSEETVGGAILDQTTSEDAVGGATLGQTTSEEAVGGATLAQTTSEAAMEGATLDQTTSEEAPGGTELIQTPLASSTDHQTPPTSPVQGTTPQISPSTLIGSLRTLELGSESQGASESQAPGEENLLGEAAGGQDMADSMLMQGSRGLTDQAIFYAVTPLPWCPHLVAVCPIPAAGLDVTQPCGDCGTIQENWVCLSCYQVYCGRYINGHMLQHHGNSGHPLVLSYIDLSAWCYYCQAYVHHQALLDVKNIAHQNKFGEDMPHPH

[1] = system: global histone H3 lysine 9 (H3K9) acetylation in HCT116; assay: Western blot analysis of global histone H3 lysine 9 acetylation; format: cell-based, human; conditions: for concentration at which significant induction of global acetylation was observed: HCT116, 24 h exposure, tested at 10 nM, 100 nM, 1 μM
HDAC1 = HDAC1 (Homo sapiens, UniProt Q13547); assay: ELISA-based HDAC activity assay; format: biochemical
HDAC2 = HDAC2 (Homo sapiens, UniProt Q92769); assay: ELISA-based HDAC activity assay; format: biochemical
HDAC3 = HDAC3 (Homo sapiens, UniProt O15379); assay: ELISA-based HDAC activity assay; format: biochemical
[2] = NCI nontumored animal toxicity assay for acute toxicity; format: in vivo; conditions: highest dose of 50 mg/kg tested
[3] = system: HCT116 colorectal cancer cell line; conditions: read-out: GI50 previously reported; HCT 116 cell growth inhibition; cited from earlier work
[4] = mouse serum, mouse microsomal proteins, cellular proteins; cited from earlier work

Chain of HDAC3 (O15379 whole entry): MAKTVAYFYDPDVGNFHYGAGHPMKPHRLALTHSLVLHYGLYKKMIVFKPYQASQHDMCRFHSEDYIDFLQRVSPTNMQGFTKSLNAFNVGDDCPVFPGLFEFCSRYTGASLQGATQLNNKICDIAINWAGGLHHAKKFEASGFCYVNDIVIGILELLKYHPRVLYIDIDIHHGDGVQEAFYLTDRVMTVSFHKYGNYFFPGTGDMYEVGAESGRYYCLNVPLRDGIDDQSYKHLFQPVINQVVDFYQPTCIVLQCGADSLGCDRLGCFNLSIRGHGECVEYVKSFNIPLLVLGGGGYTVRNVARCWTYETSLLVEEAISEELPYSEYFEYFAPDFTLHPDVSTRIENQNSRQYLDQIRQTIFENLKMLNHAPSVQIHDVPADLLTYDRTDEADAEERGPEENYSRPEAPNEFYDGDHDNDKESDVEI
Chain of HDAC3 (Q9Y618 whole entry partner): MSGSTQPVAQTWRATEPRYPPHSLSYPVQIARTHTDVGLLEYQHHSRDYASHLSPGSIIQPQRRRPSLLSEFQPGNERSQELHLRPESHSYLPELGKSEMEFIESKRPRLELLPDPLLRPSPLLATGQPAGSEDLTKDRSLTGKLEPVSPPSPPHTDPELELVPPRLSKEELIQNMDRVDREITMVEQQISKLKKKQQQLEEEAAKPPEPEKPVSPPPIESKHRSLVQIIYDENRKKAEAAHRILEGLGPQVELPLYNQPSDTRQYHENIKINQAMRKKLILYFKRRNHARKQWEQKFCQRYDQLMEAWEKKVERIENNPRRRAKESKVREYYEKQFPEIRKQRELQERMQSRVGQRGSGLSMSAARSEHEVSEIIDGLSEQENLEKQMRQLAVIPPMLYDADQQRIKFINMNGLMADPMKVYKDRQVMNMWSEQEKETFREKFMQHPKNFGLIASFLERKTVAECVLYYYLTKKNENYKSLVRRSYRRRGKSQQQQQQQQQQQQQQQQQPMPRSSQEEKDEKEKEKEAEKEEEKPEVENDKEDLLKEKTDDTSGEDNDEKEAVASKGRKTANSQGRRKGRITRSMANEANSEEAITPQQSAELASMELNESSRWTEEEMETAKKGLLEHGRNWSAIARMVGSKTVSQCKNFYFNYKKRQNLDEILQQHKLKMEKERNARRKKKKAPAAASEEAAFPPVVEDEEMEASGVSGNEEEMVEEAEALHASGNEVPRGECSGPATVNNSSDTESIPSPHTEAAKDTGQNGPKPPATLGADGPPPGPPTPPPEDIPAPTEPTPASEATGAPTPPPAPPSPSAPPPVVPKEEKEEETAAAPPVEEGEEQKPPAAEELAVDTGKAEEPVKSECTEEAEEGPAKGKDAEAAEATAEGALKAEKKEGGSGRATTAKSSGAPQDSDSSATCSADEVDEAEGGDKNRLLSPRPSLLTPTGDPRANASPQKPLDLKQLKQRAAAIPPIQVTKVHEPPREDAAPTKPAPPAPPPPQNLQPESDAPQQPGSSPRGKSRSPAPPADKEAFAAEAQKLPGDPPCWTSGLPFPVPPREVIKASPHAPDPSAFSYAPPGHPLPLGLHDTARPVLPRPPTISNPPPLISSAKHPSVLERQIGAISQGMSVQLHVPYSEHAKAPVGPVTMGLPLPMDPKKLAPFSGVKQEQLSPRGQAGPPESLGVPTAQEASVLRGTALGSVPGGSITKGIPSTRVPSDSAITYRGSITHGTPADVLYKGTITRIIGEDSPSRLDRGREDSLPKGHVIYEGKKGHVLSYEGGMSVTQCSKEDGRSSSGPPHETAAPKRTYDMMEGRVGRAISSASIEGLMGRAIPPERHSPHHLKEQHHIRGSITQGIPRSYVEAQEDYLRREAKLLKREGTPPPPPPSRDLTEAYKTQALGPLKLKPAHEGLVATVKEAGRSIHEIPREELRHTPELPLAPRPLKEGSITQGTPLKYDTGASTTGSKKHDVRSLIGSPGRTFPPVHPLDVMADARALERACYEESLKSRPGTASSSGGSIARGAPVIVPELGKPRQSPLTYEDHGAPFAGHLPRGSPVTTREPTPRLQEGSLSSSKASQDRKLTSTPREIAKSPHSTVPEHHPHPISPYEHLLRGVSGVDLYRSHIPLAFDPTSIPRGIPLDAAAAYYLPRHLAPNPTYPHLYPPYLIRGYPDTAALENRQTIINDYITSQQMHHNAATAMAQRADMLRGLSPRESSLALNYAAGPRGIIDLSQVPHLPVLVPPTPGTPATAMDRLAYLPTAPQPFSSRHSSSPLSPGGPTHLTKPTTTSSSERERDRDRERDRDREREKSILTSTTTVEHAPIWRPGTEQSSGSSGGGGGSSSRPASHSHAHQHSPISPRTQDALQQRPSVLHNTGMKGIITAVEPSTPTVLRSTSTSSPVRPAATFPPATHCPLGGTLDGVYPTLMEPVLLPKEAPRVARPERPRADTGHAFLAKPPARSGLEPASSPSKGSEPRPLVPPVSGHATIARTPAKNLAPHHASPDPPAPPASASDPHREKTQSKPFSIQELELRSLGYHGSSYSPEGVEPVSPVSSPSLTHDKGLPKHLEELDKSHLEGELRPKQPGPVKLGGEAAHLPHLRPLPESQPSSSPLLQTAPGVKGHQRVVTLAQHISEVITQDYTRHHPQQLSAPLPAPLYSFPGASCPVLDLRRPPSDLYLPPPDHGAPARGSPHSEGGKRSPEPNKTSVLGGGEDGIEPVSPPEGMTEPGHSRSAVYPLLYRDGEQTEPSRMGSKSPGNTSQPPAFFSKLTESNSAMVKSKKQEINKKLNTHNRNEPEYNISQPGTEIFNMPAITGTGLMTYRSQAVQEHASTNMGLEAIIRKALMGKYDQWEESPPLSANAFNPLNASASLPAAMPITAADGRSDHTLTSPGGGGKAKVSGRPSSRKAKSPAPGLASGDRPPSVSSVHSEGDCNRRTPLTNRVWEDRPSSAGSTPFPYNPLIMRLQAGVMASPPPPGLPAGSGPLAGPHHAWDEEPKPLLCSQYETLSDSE
Chain of HDAC2 (Q92769 whole entry): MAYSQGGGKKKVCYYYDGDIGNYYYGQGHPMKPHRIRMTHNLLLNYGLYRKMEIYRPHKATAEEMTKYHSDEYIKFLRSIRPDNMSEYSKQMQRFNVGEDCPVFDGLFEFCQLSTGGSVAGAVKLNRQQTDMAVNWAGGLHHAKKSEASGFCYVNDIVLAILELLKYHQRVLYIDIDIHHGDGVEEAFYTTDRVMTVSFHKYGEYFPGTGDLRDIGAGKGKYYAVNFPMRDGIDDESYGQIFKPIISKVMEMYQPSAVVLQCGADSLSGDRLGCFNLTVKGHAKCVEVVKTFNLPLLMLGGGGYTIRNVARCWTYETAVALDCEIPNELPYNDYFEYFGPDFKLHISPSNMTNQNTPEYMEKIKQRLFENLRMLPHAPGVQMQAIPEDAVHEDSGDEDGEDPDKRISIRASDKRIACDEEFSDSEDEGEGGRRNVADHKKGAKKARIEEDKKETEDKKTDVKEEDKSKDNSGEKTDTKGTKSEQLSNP
Chain of HDAC1 (Q13547 whole entry): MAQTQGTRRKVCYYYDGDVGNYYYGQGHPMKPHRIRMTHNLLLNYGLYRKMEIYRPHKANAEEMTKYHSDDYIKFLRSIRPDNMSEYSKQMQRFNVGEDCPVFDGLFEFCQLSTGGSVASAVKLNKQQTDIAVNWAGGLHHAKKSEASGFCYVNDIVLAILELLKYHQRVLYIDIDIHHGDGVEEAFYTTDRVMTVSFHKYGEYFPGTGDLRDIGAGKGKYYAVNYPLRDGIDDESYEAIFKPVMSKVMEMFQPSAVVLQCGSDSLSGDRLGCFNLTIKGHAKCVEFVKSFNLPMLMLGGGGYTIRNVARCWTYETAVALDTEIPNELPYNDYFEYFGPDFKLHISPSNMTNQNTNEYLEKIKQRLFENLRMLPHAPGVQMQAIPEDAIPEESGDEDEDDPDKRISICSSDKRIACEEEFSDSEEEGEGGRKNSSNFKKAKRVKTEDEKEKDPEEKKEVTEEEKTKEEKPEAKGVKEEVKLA

Structure (SMILES): CCCCCCCC(=O)SCC/C=C/[C@@H]1CC(=O)NCc2cccc(n2)CN(C)CC(=O)N[C@@H](C(C)C)C(=O)O1 [Analogue 8]
GI50 in the dose response assay (in words) (60 NCI cell lines): micromolar GI50s
inhibition of HDAC6, single concentration screen (HDAC6; 1 μM): slightly greater inhibition of HDAC6 compared to 6 and 7

Structure (SMILES): CCCCCCCC(=O)SCC/C=C/[C@@H]1CC(=O)NCc2cccc(n2)-c2cccc(n2)C(=O)N[C@@H](C(C)C)C(=O)O1 [Analogue 7]
concentration inhibiting the growth of most of the cancer cell lines (60 NCI cell lines; NCI-60 dose response): < 10 nM
GI50 in the dose response assay (in words) (60 NCI cell lines): low nanomolar
concentration at which significant induction of global acetylation was observed [1]: 10 nM
inhibition of HDAC1, single concentration screen (HDAC1; 250 nM): significantly
inhibition of HDAC2, single concentration screen (HDAC2; 250 nM): significantly
inhibition of HDAC3, single concentration screen (HDAC3; 250 nM): significantly
selectivity for class I HDAC proteins (HDAC1, HDAC2, HDAC3) over class II HDAC6 (HDAC6; from IC50 values): at least 464 fold
acute toxicity [2]: no signs of toxicity; also recorded: well tolerated

Structure (SMILES): CCCCCCCC(=O)SCC/C=C/[C@@H]1CC(=O)NCc2cccc(n2)CN(Cc2cccc3ccccc23)CC(=O)N[C@@H](C(C)C)C(=O)O1 [Analogue 13]
global acetylation observed ([1]; HCT116, even at 100 nM): hardly any global acetylation

inhibition of HDAC1, single concentration screen (HDAC1; 2 μM): significantly
inhibition of HDAC2, single concentration screen (HDAC2; 2 μM): significantly
inhibition of HDAC3, single concentration screen (HDAC3; 2 μM): significantly
Structure (SMILES): CCCCCCCC(=O)SCC/C=C/[C@@H]1CC(=O)NCCOCCOCC(=O)N[C@@H](C(C)C)C(=O)O1 [Analogue 6]

Structure (SMILES): CCCCCCCC(=O)SCC/C=C/[C@@H]1CC(=O)NCc2nc(cs2)C2=N[C@@](C)(CS2)C(=O)N[C@@H](C(C)C)C(=O)O1 [Largazole]
concentration at which significant induction of global acetylation was observed [1]: 10 nM
GI50 [3]: 44 nM
metabolic conversion [4]: rapidly converted to the active metabolite largazole thiol
